Source: patent US10597388B2, “Pyridazinone herbicides” (FMC CORPORATION, priority 2014, dated 2020)

Columns and labels:
Assay type in all cases: in vivo
[1] = system: barnyardgrass (Echinochloa crus-galli); experiment: Test A greenhouse herbicide test, pre- and postemergence
Procedure, shortened: (§1)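 Seeds in loam–sand blend received a preemergence directed soil spray; plants at 2–10 cm, one- to two-leaf stage, received postemergence sprays. Compounds in a non-phytotoxic solvent with surfactant. After about 10 d in a greenhouse, injury rated visually versus untreated controls on a 0–100 scale (100 = complete control).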

corn (Zea mays) = experiment: as above; settings: Postemergence
Procedure, shortened: as §1

[2] = system: foxtail, giant (giant foxtail, Setaria faberii); experiment: as above
Procedure, shortened: as §1

[3] = system: pigweed (Amaranthus retroflexus); experiment: as above
Procedure, shortened: as §1

[4] = system: ragweed (common ragweed, Ambrosia elatior); experiment: as above
Procedure, shortened: as §1

[5] = system: blackgrass (Alopecurus myosuroides); experiment: Test A greenhouse herbicide test, postemergence
Procedure, shortened: (§2)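 Visual injury score, 0 (no effect) to 100 (complete control), versus untreated controls roughly 10 d after postemergence spray; plants at one- to two-leaf stage, 2 to 10 cm tall, in loam soil and sand, kept in greenhouse.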

[6] = system: galium (catchweed bedstraw, Galium aparine); experiment: Test A greenhouse herbicide test, postemergence
Procedure, shortened: as §2

[7] = system: barnyardgrass (Echinochloa crus-galli); experiment: Test C greenhouse herbicide test, pre- and postemergence
Procedure, shortened: (§3)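 Pre- and postemergence greenhouse screen; values are visual control ratings, 0 meaning no effect and 100 complete kill, assigned relative to untreated plants after 13 to 15 d.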

[8] = system: galium (catchweed bedstraw, Galium aparine); experiment: as above
Procedure, shortened: as §3

[9] = system: nutsedge, yellow (yellow nutsedge, Cyperus esculentus); experiment: as above
Procedure, shortened: as §3

[10] = system: wheat (winter wheat, Triticum aestivum); experiment: as above
Procedure, shortened: as §3

[11] = Postemergence, 125 g ai/ha, 0 to 100 scale where 0 is no effect and 100 is complete control
[12] = Preemergence, 125 g ai/ha, 0 to 100 scale where 0 is no effect and 100 is complete control
[13] = Preemergence, 500 g ai/ha, 0 to 100 scale where 0 is no effect and 100 is complete control
[14] = 125 g ai/ha, 0 to 100 scale where 0 is no effect and 100 is complete control
[15] = 500 g ai/ha, visual rating after approx. 10 d, 0 to 100 scale (0 no effect, 100 complete control)
[16] = Postemergence, 500 g ai/ha, visual rating after approx. 10 d, 0 to 100 scale (0 no effect, 100 complete control)
[17] = Postemergence, 31 g ai/ha, scale 0 to 100 (0 no effect, 100 complete control)
[18] = Postemergence, 125 g ai/ha, scale 0 to 100, 0 is no effect, 100 is complete control
[19] = Postemergence, 250 g ai/ha, scale 0 to 100, 0 no effect, 100 complete control, 13 to 15 d
[20] = Preemergence, 31 g ai/ha, scale 0 to 100, 0 is no effect, 100 is complete control
[21] = Preemergence, 62 g ai/ha, scale 0 to 100, 0 is no effect, 100 is complete control
[22] = Preemergence, 125 g ai/ha, scale 0 to 100, 0 is no effect, 100 is complete control
[23] = Preemergence, 250 g ai/ha, scale 0 to 100 (0 no effect, 100 complete control)
[24] = postemergence, 62 g ai/ha, scale 0 to 100, 0 no effect, 100 complete control

CCC(=O)Oc1c(C)nn(C)c(=O)c1-c1c(C)sc2ccc(Cl)cc12 [Compound 109]
Plant response rating, Barnyardgrass [1, 11]: 30 | Barnyardgrass plant response rating ([1]; Postemergence, 500 g ai/ha, 0 to 100 scale, 0 is no effect, 100 is complete control): 90 | Barnyardgrass plant response rating [1, 12]: 20 | Plant response rating, Barnyardgrass [1, 13]: 100 | Plant response rating, Corn (corn (Zea mays); [14]): 0 | Plant response rating, Corn (corn (Zea mays); [15]): 30 | Plant response rating, Foxtail, Giant [2, 11]: 70 | Plant response rating, Foxtail, Giant [2, 16]: 90 | Foxtail, Giant plant response rating [2, 12]: 90 | Plant response rating, Foxtail, Giant [2, 13]: 100 | Plant response rating, Pigweed [3, 11]: 90 | Plant response rating, Pigweed [3, 16]: 90 | Pigweed plant response rating [3, 12]: 100 | Plant response rating, Pigweed [3, 13]: 100 | Plant response rating, Ragweed [4, 11]: 80 | Plant response rating, Ragweed [4, 16]: 100 | Ragweed plant response rating [4, 12]: 100 | Plant response rating, Ragweed [4, 13]: 100 | Plant response rating, Blackgrass [5, 14]: 80 | Blackgrass plant response rating ([5]; 500 g ai/ha, 0 to 100 scale, 0 is no effect, 100 is complete control): 90 | Plant response rating, Galium [6, 14]: 100 | Plant response rating, Galium [6, 15]: 100 | Plant response rating, Barnyardgrass [7, 17]: 25 | Plant response rating, Barnyardgrass [7, 18]: 55 | Plant response rating, Barnyardgrass [7, 19]: 65 | Plant response rating, Barnyardgrass [7, 20]: 10 | Plant response rating, Barnyardgrass [7, 21]: 35 | Plant response rating, Barnyardgrass [7, 22]: 70 | Barnyardgrass plant response rating [7, 23]: 80 | Barnyardgrass plant response rating [7, 24]: 30 | Plant response rating, Galium [8, 17]: 98 | Plant response rating, Galium [8, 18]: 100 | Plant response rating, Galium [8, 19]: 100 | Plant response rating, Galium [8, 20]: 90 | Plant response rating, Galium [8, 21]: 90 | Plant response rating, Galium [8, 22]: 90 | Galium plant response rating [8, 23]: 90 | Plant response rating, Nutsedge, Yellow [9, 17]: 45 | Plant response rating, Nutsedge, Yellow [9, 18]: 80 | Plant response rating, Nutsedge, Yellow [9, 19]: 80 | Plant response rating, Nutsedge, Yellow [9, 20]: 40 | Plant response rating, Nutsedge, Yellow [9, 21]: 70 | Plant response rating, Nutsedge, Yellow [9, 22]: 90 | Nutsedge, Yellow plant response rating [9, 23]: 80 | Plant response rating, Wheat [10, 17]: 0 | Plant response rating, Wheat [10, 18]: 10 | Plant response rating, Wheat [10, 19]: 35 | Plant response rating, Wheat [10, 20]: 0 | Plant response rating, Wheat [10, 21]: 10 | Plant response rating, Wheat [10, 22]: 10 | Wheat plant response rating [10, 23]: 15

CCC(=O)Oc1c(Cl)nn(C)c(=O)c1-c1c(C)sc2ccc(Cl)cc12 [Compound 111]
Plant response rating, Barnyardgrass [1, 11]: 40 | Plant response rating, Barnyardgrass [1, 16]: 90 | Barnyardgrass plant response rating [1, 12]: 70 | Plant response rating, Barnyardgrass [1, 13]: 100 | Plant response rating, Corn (corn (Zea mays); [14]): 0 | Plant response rating, Corn (corn (Zea mays); [15]): 20 | Plant response rating, Foxtail, Giant [2, 11]: 70 | Plant response rating, Foxtail, Giant [2, 16]: 100 | Foxtail, Giant plant response rating [2, 12]: 80 | Plant response rating, Foxtail, Giant [2, 13]: 100 | Plant response rating, Pigweed [3, 11]: 100 | Plant response rating, Pigweed [3, 16]: 100 | Pigweed plant response rating [3, 12]: 90 | Plant response rating, Pigweed [3, 13]: 100 | Plant response rating, Ragweed [4, 11]: 70 | Plant response rating, Ragweed [4, 16]: 100 | Ragweed plant response rating [4, 12]: 80 | Plant response rating, Ragweed [4, 13]: 90 | Plant response rating, Blackgrass [5, 14]: 30 | Plant response rating, Blackgrass [5, 15]: 70 | Plant response rating, Galium [6, 14]: 90 | Plant response rating, Galium [6, 15]: 100 | Plant response rating, Barnyardgrass [7, 17]: 10 | Plant response rating, Barnyardgrass [7, 18]: 45 | Plant response rating, Barnyardgrass [7, 19]: 40 | Plant response rating, Barnyardgrass [7, 20]: 10 | Plant response rating, Barnyardgrass [7, 21]: 20 | Plant response rating, Barnyardgrass [7, 22]: 55 | Barnyardgrass plant response rating [7, 23]: 85 | Barnyardgrass plant response rating [7, 24]: 30 | Plant response rating, Galium [8, 17]: 95 | Plant response rating, Galium [8, 18]: 95 | Plant response rating, Galium [8, 19]: 95 | Plant response rating, Galium [8, 20]: 80 | Plant response rating, Galium [8, 21]: 80 | Plant response rating, Galium [8, 22]: 100 | Galium plant response rating [8, 23]: 100 | Plant response rating, Nutsedge, Yellow [9, 17]: 35 | Plant response rating, Nutsedge, Yellow [9, 18]: 65 | Plant response rating, Nutsedge, Yellow [9, 19]: 75 | Plant response rating, Nutsedge, Yellow [9, 20]: 0 | Plant response rating, Nutsedge, Yellow [9, 21]: 20 | Plant response rating, Nutsedge, Yellow [9, 22]: 75 | Nutsedge, Yellow plant response rating [9, 23]: 90 | Plant response rating, Wheat [10, 17]: 10 | Plant response rating, Wheat [10, 18]: 15 | Plant response rating, Wheat [10, 19]: 25 | Plant response rating, Wheat [10, 20]: 0 | Plant response rating, Wheat [10, 21]: 5 | Plant response rating, Wheat [10, 22]: 20 | Wheat plant response rating [10, 23]: 40
